How the values were obtained:
Assay type in all cases: binding
[1] = target: T1, CagFbFP (Q89E variant: LSSFbFP) (Chloroflexus aggregans, UniProt B8GAY9, C85A/Q89E); experiment: melting curve by flavin fluorescence in real-time PCR cycler; conditions: Tm of the complex, not a shift
T1 construct: gene Cagg_3753; C85A background inferred from printed I52V-A85Q and known biology
T1 sequence (B8GAY9 47-153 C85A/Q89E): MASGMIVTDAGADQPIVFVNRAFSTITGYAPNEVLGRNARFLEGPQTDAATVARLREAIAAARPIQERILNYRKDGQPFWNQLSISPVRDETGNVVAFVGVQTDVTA

[2] = target: T1, CagFbFP (Q89E variant: LSSFbFP); experiment: chromophore dissociation constant measurement, details in cited reference; crystal structure of complex
[3] = target: T1, CagFbFP (Q89E variant: LSSFbFP); experiment: melting curve by flavin fluorescence in real-time PCR cycler; conditions: Tm of the complex, not a shift; remark: listed apart in the source

Work on `Cc1cc2nc3c(=O)[nH]c(=O)nc-3n(C[C@H](O)[C@H](O)[C@H](O)COP(=O)(O)O)c2cc1C` [FMN, flavin mononucleotide] yielded a denaturation temperature [1] of 81 °C and a Kd [2] of 360 ± 50 nM.

Compound `Cc1cc2nc3[nH]c(=O)[nH]c(=O)c3nc2cc1C` [LC, lumichrome] has a Kd [2] of 900 ± 300 nM and a thermal stability [3] of 58 °C.

Reference: doi:10.1101/2025.06.07.658458v1, “Discovery of excited state proton transfer in flavin-based fluorescent protein with large Stokes shift” (biorxiv, 2025)
